Peptide text beside a SMILES is read from it.
Assays:
FOXO4 FHD = FOXO4 FHD (Homo sapiens, UniProt P98177); test: FPA competition assay; format: binding; conditions: FPA competition analysis
[1] = tested on: FOXO4 foci in senescent A375 cells; test: Immunofluorescence of FOXO4 foci in nuclei of senescent A375 cells; format: cell-based, Human; conditions: doxorubicin-induced senescent A375 cells; 30 μM CPP-CAND, 24 h; vs DMSO mock
caspase 3/7 = test: Caspase 3/7 activity; format: cell-based, Human; conditions: senescent A375 cells; 20 μM, 24 h
A375 cells = test: MTS cell viability assay, dividing vs cisplatin; format: cell-based, Human; conditions: dividing vs CDDP (4 µM)-induced senescent A375 cells

FOXO4 FHD, sequence (P98177 95-195): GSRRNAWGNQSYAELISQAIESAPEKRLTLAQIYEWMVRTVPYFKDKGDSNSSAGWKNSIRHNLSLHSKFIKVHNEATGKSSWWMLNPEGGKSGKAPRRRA

| SMILES | Enhancement of inhibitory ability compared to p53 TAD PEP (FOXO4 FHD) | Reduction in number of FOXO4 foci in nuclei [1] | Caspase 3/7 activity (percentage of green fluorescent cells), senescent cells (caspase 3/7) [%] | SI75 (selectivity index from IC75 values) (A375 cells) |
| --- | --- | --- | --- | --- |
| CC[C@H](C)[C@H](NC(=O)[C@H](C)NC(=O)[C@H](C)NC(=O)[C@@H]1CCCN1C(=O)[C@H](CO)NC(=O)[C@H](CC(C)C)NC(=O)[C@H](CCSC)NC(=O)[C@H](CC(C)C)NC(=O)[C@H](C)N)C(=O)N[C@@H](C)C(=O)N[C@@H](CCC(N)=O)C(=O)N[C@@H](Cc1c[nH]c2ccccc12)C(=O)N[C@@H](Cc1ccccc1)C(=O)N[C@H](C(=O)N[C@@H](C)C(=O)N[C@@H](C)C(=O)O)[C@@H](C)O [CAND] (H-ALMLSPAAIAQWFTAA-OH; N-terminus and C-terminus assumed) | approximately three-fold | – | – | – |
| CC[C@H](C)[C@H](NC(=O)[C@H](C)NC(=O)[C@H](C)NC(=O)[C@@H]1CCCN1C(=O)[C@H](CO)NC(=O)[C@H](CC(C)C)NC(=O)[C@H](CCSC)NC(=O)[C@H](CC(C)C)NC(=O)[C@H](C)NC(=O)[C@@H]1CCCN1C(=O)[C@@H]1CCCN1C(=O)[C@H](CCCNC(=N)N)NC(=O)[C@H](CCCNC(=N)N)NC(=O)[C@H](CCCNC(=N)N)NC(=O)[C@H](CCC(N)=O)NC(=O)[C@H](CCCNC(=N)N)NC(=O)[C@H](CCCNC(=N)N)NC(=O)[C@H](CCCCN)NC(=O)[C@H](CCCCN)NC(=O)[C@H](CCCNC(=N)N)NC(=O)CN)C(=O)N[C@@H](C)C(=O)N[C@@H](CCC(N)=O)C(=O)N[C@@H](Cc1c[nH]c2ccccc12)C(=O)N[C@@H](Cc1ccccc1)C(=O)N[C@H](C(=O)N[C@@H](C)C(=O)N[C@@H](C)C(=O)O)[C@@H](C)O [CPP-CAND] (H-GRKKRRQRRRPPALMLSPAAIAQWFTAA-OH; N-terminus and C-terminus assumed) | – | approximately 7.1 fold | 44 | approximately 2.4 |

Reference: paper doi:10.1101/2024.09.04.610228v1 (bioRxiv, 2024)
